Values of other authors, collected in patent US9326930B2, “Calcium sequestration compositions and methods of treating skin pigmentation disorders and conditions” (NEOCUTIS S.A., priority 2009, dated 2016).

What was measured:
[1] = target: melanocortin receptor 1 (MC1R) (Homo sapiens, UniProt Q01726)
B16F0 melanoma cells = settings: L-forms, not D-forms
[2] = test system: melanocyte-keratinocyte co-cultures; settings: intracellular calcium in keratinocytes chelated

Sequence of melanocortin receptor 1 (MC1R) (Q01726 whole entry, species assumed): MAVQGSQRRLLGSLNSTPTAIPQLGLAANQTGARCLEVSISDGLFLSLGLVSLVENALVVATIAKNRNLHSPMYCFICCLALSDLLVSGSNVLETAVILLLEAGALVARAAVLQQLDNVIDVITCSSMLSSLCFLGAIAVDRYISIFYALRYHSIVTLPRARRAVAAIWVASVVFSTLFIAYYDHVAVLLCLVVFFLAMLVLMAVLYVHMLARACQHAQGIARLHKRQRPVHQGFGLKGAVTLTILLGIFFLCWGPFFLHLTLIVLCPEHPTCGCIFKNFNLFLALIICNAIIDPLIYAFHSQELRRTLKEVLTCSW

SMILES	effect on pigmentation (B16F0 melanoma cells)	other results
C=CCCCCCCCCC(=O)N[C@@H](Cc1ccccc1)C(=O)O [undecylenoyl phenylalanine]	–	affinity to MC1R [1]: affinity towards MC1R; action on α-MSH ([1]; in vitro): antagonist of α-MSH
NCC(=O)O [glycine]	hypopigmenting effects	–
CC(=O)OCOC(=O)CN(CC(=O)OCOC(C)=O)c1ccccc1OCCOc1ccccc1N(CC(=O)OCOC(C)=O)CC(=O)OCOC(C)=O [BAPTA-AM, 1,2-bis-(o-aminophenoxy)-ethane-N,N,N′,N′-tetraacetic acid tetra-acetoxymethyl ester]	–	melanin transfer [2]: melanin transfer was inhibited
C[C@H](N)C(=O)O [L-alanine]	hypopigmenting effects	–
CC(C)C[C@H](N)C(=O)O [L-leucine]	hypopigmenting effects	–
CC[C@H](C)[C@H](N)C(=O)O [L-isoleucine]	hypopigmenting effects	–
